# Results taken from ChEMBL document CHEMBL5316381, “Discovery of [1,2,3]Triazolo[4,5-c]quinoline Derivatives as a New Class of Ataxia-Telangiectasia Mutated Kinase Inhibitors” (ACS Med Chem Lett, 2023).
# Calls of active or inactive are those of the source. The calls are words filed in the database; no cut-off is given here.
# Assays:
# [1] = test system: HCT-116; assay: Induction of apoptosis in human HCT-116 cells assessed as viable cells at 10 nM measured after 72 hrs in presence of CPT-11 by Annexin V-FITC staining based flow cytometric analysis (reference value: 73.74%); assay type: functional; conditions: read-out: Activity
# [2] = test system: SW-620; assay: Cell cycle arrest in human SW620 cells assessed as accumulation of cells at G2/M phase incubated for 24 hrs in presence of CPT-11 by PI staining based flow cytometric analysis; assay type: functional; conditions: dose 10-100 nM
# [3] = test system: SW-620; assay: Cell cycle arrest in human SW620 cells assessed as accumulation of cells at G2/M phase upto 100 nM incubated for 24 hrs by PI staining based flow cytometric analysis; assay type: functional
# [4] = test system: SW-620; assay: Induction of apoptosis in human SW620 cells assessed as early apoptotic cells at 100 nM measured after 72 hrs in presence of CPT-11 by Annexin V-FITC staining based flow cytometric analysis (reference value: 1.06%); assay type: functional
# [5] = Toxicity in BALB/c mouse xenografted with human SW620 cells assessed as lung damage at 5 mg/kg, ip administered once daily and measured after 23 days by H&E staining based microscopic analysis; assay type: organism-based, SW-620; conditions: in vivo, 552 h, time 23 day
# [6] = test system: SW-620; assay: Radiosensitizing activity against human SW620 cells assessed as reduction in colony formation at 9 nM incubated after 14 days in the presence of 1.5 Gy irradiation by crystal violet staining based analysis; assay type: functional, cell-based; conditions: time 14.0 day
# [7] = target: Serine/threonine-protein kinase Chk2 (Homo sapiens) (UniProt O96017); assay: Inhibition of Chk2 phosphorylation in human SW620 cells with IR-induced DNA damage in the presence of 3 Gy irradiation by Western blot analysis; assay type: cell-based; conditions: dose 3-250 nM
# [8] = test system: HCT-116; assay: Induction of apoptosis in human HCT-116 cells assessed as late apoptotic cells at 100 nM measured after 72 hrs in presence of CPT-11 by Annexin V-FITC staining based flow cytometric analysis (reference value: 19.80%); assay type: functional
# [9] = test system: SW-620; assay: Antitumor activity against human SW620 cells xenografted in BALB/C mouse assessed as reduction in tumor volume at 5 mg/kg, ip administered once a week and measured after 23 days in the presence of CPT-11; assay type: functional, organism-based; conditions: time 23.0 day
# [10] = target: T1, Serine-protein kinase ATM (Homo sapiens, UniProt Q13315); assay: Inhibition of ATM in human SW620 cells assessed as increase in gamma H2AX foci at 250 nM incubated for 24 hrs by confocal microscopic analysis; assay type: cell-based
# [11] = test system: SW-620; assay: Radiosensitizing activity against human SW620 cells assessed as reduction in colony formation at 27 nM incubated after 14 days in the presence of 1.5 Gy irradiation by crystal violet staining based analysis; assay type: functional, cell-based; conditions: time 14.0 day
# [12] = target: T1, Serine-protein kinase ATM; assay: Inhibition of ATM phosphorylation in human SW620 cells with IR-induced DNA damage in the presence of 1.5 Gy irradiation by Western blot analysis; assay type: cell-based; conditions: dose 3-250 nM
# [13] = test system: SW-620; assay: Induction of apoptosis in human SW620 cells assessed as viable cells at 100 nM measured after 72 hrs by Annexin V-FITC staining based flow cytometric analysis (reference value: 87.36%); assay type: functional; conditions: read-out: Activity
# [14] = test system: HCT-116; assay: Anticancer activity against human HCT-116 cells assessed as reduction in cell viability by measuring fold change in CPT-11 IC50 at 100 nM incubated for 5 days by MTT assay relative irinotecan alone; assay type: functional; conditions: time 5 day
# [15] = target: DNA-dependent protein kinase catalytic subunit (Homo sapiens, UniProt P78527); assay: Inhibition of DNA-PK (unknown origin) using GST-cMyc-p53 as substrate incubated for 30 mins in the presence of Mg/ATP mix by HTRF-based analysis
# [16] = test system: HCT-116; assay: Induction of apoptosis in human HCT-116 cells assessed as late apoptotic cells at 100 nM measured after 72 hrs by Annexin V-FITC staining based flow cytometric analysis (reference value: 19.80%); assay type: functional
# [17] = target: Serine/threonine-protein kinase mTOR (Homo sapiens, UniProt P42345); assay: Inhibition of mTOR (unknown origin) incubated for 40 mins in the presence of Mn/ATP mix by scintillation counting analysis
# [18] = test system: HCT-116; assay: Induction of apoptosis in human HCT-116 cells assessed as early apoptotic cells at 10 nM measured after 72 hrs in presence of CPT-11 by Annexin V-FITC staining based flow cytometric analysis (reference value: 4.06%); assay type: functional
# [19] = test system: SW-620; assay: Induction of apoptosis in human SW620 cells assessed as necrotic cells at 30 nM measured after 72 hrs in presence of CPT-11 by Annexin V-FITC staining based flow cytometric analysis (reference value: 5.83%); assay type: functional
# [20] = test system: HCT-116; assay: Induction of apoptosis in human HCT-116 cells assessed as viable cells at 100 nM measured after 72 hrs in presence of CPT-11 by Annexin V-FITC staining based flow cytometric analysis (reference value: 73.74%); assay type: functional; conditions: read-out: Activity
# [21] = test system: HCT-116; assay: Induction of apoptosis in human HCT-116 cells assessed as early apoptotic cells at 1 uM measured after 72 hrs by Annexin V-FITC staining based flow cytometric analysis (reference value: 4.06%); assay type: functional
# [22] = test system: SW-620; assay: Induction of apoptosis in human SW620 cells assessed as late apoptotic cells at 100 nM measured after 72 hrs by Annexin V-FITC staining based flow cytometric analysis (reference value: 5.75%); assay type: functional
# [23] = test system: SW-620; assay: Antiproliferative activity against human SW620 cells assessed as reduction in colony formation at 27 nM measured after 14 days by crystal violet staining based microscopic analysis; assay type: functional, cell-based; conditions: time 14.0 day
# [24] = target: Serine/threonine-protein kinase Chk2 (Homo sapiens) (UniProt O96017); assay: Inhibition of Chk2 phosphorylation in human SW620 cells with IR-induced DNA damage in the presence of 1.5 Gy irradiation by Western blot analysis; assay type: cell-based; conditions: dose 3-250 nM
# [25] = test system: HCT-116; assay: Induction of apoptosis in human HCT-116 cells assessed as early apoptotic cells at 100 nM measured after 72 hrs by Annexin V-FITC staining based flow cytometric analysis (reference value: 4.06%); assay type: functional
# [26] = test system: SW-620; assay: Induction of apoptosis in human SW620 cells assessed as viable cells at 100 nM measured after 72 hrs in presence of CPT-11 by Annexin V-FITC staining based flow cytometric analysis (reference value: 87.36%); assay type: functional; conditions: read-out: Activity
# [27] = Toxicity in BALB/c mouse xenografted with human SW620 cells assessed as kidney damage at 5 mg/kg, ip administered once daily and measured after 23 days by H&E staining based microscopic analysis; assay type: organism-based, SW-620; conditions: in vivo, 552 h, time 23 day
# [28] = test system: HCT-116; assay: Induction of apoptosis in human HCT-116 cells assessed as early apoptotic cells at 30 nM measured after 72 hrs in presence of CPT-11 by Annexin V-FITC staining based flow cytometric analysis (reference value: 4.06%); assay type: functional
# [29] = test system: SW-620; assay: Induction of apoptosis in human SW620 cells assessed as early apoptotic cells at 30 nM measured after 72 hrs in presence of CPT-11 by Annexin V-FITC staining based flow cytometric analysis (reference value: 1.06%); assay type: functional
# [30] = target: T1, Serine-protein kinase ATM; assay: Inhibition of ATM (unknown origin) using GST-cMyc-p53 as substrate incubated for 30 mins in presence of Mg/ATP mix by HTRF-based analysis
# [31] = test system: HCT-116; assay: Induction of apoptosis in human HCT-116 cells assessed as late apoptotic cells at 1 uM measured after 72 hrs by Annexin V-FITC staining based flow cytometric analysis (reference value: 19.80%); assay type: functional
# T1 sequence (Q13315 whole entry): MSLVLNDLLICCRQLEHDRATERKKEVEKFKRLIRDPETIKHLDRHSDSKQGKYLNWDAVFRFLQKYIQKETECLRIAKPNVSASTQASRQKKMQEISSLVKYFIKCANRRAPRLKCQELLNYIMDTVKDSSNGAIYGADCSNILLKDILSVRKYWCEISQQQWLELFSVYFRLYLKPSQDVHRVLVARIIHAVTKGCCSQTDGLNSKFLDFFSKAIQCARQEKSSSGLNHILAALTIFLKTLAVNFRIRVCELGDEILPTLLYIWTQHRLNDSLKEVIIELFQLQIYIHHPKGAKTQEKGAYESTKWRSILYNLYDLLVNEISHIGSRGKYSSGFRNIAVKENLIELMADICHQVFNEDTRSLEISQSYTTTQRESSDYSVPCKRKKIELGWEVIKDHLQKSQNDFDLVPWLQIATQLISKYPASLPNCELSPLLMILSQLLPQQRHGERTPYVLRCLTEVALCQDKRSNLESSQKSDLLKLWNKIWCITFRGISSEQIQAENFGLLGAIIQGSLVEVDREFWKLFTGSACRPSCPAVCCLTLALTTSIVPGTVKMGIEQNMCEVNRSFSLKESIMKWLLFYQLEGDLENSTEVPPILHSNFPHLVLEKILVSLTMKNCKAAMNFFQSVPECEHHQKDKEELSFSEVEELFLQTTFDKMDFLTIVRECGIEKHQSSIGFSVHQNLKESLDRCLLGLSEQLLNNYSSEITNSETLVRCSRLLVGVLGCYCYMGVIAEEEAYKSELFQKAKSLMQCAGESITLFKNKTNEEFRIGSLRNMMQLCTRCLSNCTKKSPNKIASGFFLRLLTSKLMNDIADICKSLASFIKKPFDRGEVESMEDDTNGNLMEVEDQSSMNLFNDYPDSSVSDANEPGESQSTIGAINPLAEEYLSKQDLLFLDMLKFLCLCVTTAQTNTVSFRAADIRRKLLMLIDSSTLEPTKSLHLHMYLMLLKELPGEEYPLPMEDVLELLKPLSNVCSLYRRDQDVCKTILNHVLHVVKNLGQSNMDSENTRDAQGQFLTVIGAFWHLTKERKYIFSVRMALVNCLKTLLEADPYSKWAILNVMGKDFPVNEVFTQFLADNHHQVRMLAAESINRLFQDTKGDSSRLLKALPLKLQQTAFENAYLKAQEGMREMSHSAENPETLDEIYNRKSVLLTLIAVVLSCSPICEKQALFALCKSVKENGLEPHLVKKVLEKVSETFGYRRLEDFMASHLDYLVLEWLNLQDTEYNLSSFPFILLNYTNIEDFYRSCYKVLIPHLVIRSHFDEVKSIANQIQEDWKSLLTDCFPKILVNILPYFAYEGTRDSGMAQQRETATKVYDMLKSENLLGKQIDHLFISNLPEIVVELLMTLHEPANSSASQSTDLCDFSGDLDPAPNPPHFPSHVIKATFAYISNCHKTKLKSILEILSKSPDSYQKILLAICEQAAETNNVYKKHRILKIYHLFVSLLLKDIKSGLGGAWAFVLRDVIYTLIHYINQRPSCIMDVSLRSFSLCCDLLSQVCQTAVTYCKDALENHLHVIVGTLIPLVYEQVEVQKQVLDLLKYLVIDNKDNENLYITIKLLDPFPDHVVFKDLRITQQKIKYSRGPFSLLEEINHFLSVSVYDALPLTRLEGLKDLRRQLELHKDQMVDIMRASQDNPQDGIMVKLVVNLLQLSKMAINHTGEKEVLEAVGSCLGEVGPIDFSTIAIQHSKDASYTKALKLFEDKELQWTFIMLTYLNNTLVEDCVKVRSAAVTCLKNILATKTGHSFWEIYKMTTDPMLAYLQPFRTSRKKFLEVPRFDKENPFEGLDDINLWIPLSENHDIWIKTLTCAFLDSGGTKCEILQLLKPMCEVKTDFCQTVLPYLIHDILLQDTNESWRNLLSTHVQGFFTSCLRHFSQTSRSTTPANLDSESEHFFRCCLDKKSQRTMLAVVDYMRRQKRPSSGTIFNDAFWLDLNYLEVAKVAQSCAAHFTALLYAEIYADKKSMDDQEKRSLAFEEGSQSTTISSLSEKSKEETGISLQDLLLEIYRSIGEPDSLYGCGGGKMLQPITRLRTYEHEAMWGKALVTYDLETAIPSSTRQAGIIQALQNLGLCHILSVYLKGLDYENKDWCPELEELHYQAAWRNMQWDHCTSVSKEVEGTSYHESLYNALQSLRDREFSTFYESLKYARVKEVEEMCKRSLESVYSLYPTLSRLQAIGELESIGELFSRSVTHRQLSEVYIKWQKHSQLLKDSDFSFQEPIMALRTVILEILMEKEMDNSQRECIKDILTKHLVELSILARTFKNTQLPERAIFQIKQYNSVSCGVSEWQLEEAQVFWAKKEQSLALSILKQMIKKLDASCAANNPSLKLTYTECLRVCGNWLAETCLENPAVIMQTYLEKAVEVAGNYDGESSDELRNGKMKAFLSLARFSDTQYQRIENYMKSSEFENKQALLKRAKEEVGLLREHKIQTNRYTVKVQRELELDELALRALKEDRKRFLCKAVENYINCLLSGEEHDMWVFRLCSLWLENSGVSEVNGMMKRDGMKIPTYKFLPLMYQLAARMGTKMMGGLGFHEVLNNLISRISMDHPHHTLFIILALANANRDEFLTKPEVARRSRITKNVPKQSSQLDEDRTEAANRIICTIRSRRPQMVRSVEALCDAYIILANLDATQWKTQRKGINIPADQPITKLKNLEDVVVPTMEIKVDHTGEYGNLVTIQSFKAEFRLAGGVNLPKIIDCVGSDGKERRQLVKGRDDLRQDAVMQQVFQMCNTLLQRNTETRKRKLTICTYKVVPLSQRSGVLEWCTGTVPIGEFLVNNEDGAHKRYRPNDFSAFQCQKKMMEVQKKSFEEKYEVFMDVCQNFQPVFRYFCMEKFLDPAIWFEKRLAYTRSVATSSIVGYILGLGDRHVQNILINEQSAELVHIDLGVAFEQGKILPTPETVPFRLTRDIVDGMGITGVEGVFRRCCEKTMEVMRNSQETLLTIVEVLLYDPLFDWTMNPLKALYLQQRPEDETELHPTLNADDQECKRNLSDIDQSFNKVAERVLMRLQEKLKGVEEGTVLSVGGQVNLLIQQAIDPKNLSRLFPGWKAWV
# Serine/threonine-protein kinase Chk2 (Homo sapiens), sequence (O96017 whole entry): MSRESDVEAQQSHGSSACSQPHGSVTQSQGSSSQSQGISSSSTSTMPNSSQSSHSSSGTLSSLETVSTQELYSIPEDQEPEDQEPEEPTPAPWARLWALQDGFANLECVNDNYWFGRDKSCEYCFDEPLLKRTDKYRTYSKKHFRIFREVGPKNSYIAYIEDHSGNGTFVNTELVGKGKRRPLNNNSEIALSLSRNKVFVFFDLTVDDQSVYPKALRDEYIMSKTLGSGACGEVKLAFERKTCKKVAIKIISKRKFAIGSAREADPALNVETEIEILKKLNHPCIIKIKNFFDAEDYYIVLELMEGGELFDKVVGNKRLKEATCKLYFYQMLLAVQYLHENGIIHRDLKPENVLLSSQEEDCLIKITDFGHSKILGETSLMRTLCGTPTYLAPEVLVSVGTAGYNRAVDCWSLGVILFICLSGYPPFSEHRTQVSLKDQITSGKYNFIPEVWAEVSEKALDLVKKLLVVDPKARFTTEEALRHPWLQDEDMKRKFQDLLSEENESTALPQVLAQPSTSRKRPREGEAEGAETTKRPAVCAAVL
structure (smiles),measurement,setting,value
C[C@H](c1ccccc1)n1nnc2cnc3ccc(-c4ccc(OCCCN(C)C)nc4)cc3c21,viability at 0.01 µM,[1],55.8%
same,Activity,[2],Dose-Dependent Effect
same,Activity,[3],inactive
same,Activity,[4],7.18%
same,Activity,[5],Non-Toxic
same,Activity,[6],Active
same,inhibition,[7],Dose-Dependent Effect
same,Activity,[8],68.15%
same,Activity,[9],Active
same,inhibition,[10],Active
same,Activity,[11],Active
same,inhibition,[12],Dose-Dependent Effect
same,viability at 0.1 µM,[13],80.2%
same,fold change (FC),[14],16
same,IC50,[15],123 nM
same,Activity,[16],14.21%
same,IC50,[17],216 nM
same,Activity,[18],1.1%
same,Activity,[19],1.83%
same,viability at 0.1 µM,[20],22%
same,Activity,[21],1.34%
same,Activity,[22],11.57%
same,Activity,[23],inactive
same,inhibition,[24],Dose-Dependent Effect
same,Activity,[25],1.21%
same,viability at 0.1 µM,[26],30.5%
same,Activity,[27],Non-Toxic
same,Activity,[28],2.23%
same,Activity,[29],6.95%
same,IC50,[30],1 nM
same,Activity,[31],31.02%
